According to patent US4256883A, “Pyridoza prostacyclin analogues and N-oxides thereof” (Research Corporation, priority 1979, dated 1981):
Entries after “also recorded” stand apart in the source; their conditions may differ. Where two headings read alike, the source gives them in different places. Each block holds one compound with its values, some of them ahead of it.

Columns and labels:
[1] = test system: human and rabbit citrated platelet-rich plasma; experiment: Effects on platelet aggregation (citrated platelet-rich plasma, chronolog aggregometer, 37°); format: cell-based; conditions: for Biological Activity: Platelet Aggregation (in words): inhibition of aggregation induced by 2 uM ADP, human and rabbit platelet-rich plasma, 37°
Protocol: Effects of prostacyclin analogs on platelet aggregation were evaluated using human and rabbit citrated platelet-rich plasma in a chronolog aggregometer at 37°.

[2] = test system: isolated perfused cat coronary arteries; experiment: Effects on isolated perfused cat coronary arteries (perfusion pressure); conditions: for Biological Activity: Cat Coronary Artery (in words): isolated perfused right coronary artery, 37° C., Krebs-Henseleit
Protocol: Effects of prostacyclin analogs on isolated perfused cat coronary arteries were measured as follows.
Cats of either sex (2.5-3.5 kg) were anesthetized with sodium pentobarbital (30 mg/kg) given intravenously. […] A 20-gauge stainless steel cannula was inserted into the right coronary artery via the coronary ostium. Distal to the cannula, approximately 1 cm of coronary artery was dissected free of surrounding tissue. The section of right coronary artery with the cannula in place was excised from the heart and immediately transferred to a constant flow perfusion apparatus.
The perfusion apparatus consists of a reservoir containing 20 ml of warm (37° C.) oxygenated (95% O2 +5% CO2) K-H solution which bathes the coronary artery and serves as recirculating perfusate. An increase in perfusion pressure indicates vasoconstriction, whereas a decrease in perfusion pressure signifies vasodilation. Following an initial 1 hr. equilibrium period, vascular responsiveness was established by adding 25 mM KCl. After washing with fresh K-H solution for 20-30 mins., the preparation achieved a relatively constant low basal tone. […] Fresh K-H dilutions of stock prostacyclin analog concentrations were added to the perfusate reservoir in 0.1-0.2 ml volumes.

[3] = test system: blood platelet aggregation; conditions: background statement, cited from earlier work
[4] = background; Bundy, Tetrahedron Letters, 1371 (1978); cited from earlier work
blood vessels / arteries = conditions: background statement; cited from earlier work
[5] = test system: blood platelets and arteries; conditions: prior-art analogues, comparison by inventors; cited from earlier work
[6] = Stability of free acid XXIV in aqueous solutions at 25° C.; format: physicochemical
Protocol: Free acid XXIV was stable in aqueous solutions at 25° C. for at least 30 days.

[7] = number in parentheses, not explained, natural prostacyclin = 1

t1/2 Saline (25°): > 24 h
Compound: 6, 9-pyridaza prostacyclin, N-oxides [N-oxides XXV]
Biological Activity: Platelet Aggregation (in words) [1]: Small effect | Biological Activity: Cat Coronary Artery (in words) [2]: Small effect

Compound: 7,8-dihydro-6,9-pyridaza prostacyclin [XXIII]
Biological Activity: Platelet Aggregation (in words) [1]: Inhibitor (Potent) | Biological Activity: Platelet Aggregation, number in parentheses [1, 7]: 0.1 | Biological Activity: Cat Coronary Artery (in words) [2]: Dilator (Potent) | Biological Activity: Cat Coronary Artery, number in parentheses [2, 7]: 0.1

Compound: CCCCC[C@H](O)/C=C/[C@@H]1[C@H]2CC(CCCCC(=O)O)=N[C@H]2C[C@H]1O [IV]
effect on blood platelet aggregation (in words) [3]: potency in inhibiting platelet aggregation | stability (in words) [4]: high stability

half-life (t1/2 in saline at 25°): 0.0333 h
Compound: CCCCC[C@H](O)/C=C/[C@@H]1[C@H]2C/C(=C/CCCC(=O)O)O[C@H]2C[C@H]1O [Natural prostacyclin, 6,9α-oxido-11α,15α-dihydroxyprosta (Z)5, E(13)-dienoic acid]
effect on blood vessels / arteries (in words) (blood vessels / arteries): powerful action as a dilator of blood vessels | effect on blood platelet aggregation (in words) ([3]; listed as Prostacyclin): most potent inhibitor of blood platelet aggregation of all the prostaglandins discovered to date | effect on blood platelet aggregation (in words) ([3]; listed as prostacyclin): destroys platelet aggregates after they have formed | Biological Activity: Platelet Aggregation (in words) [1]: Inhibitor (Potent) | Biological Activity: Cat Coronary Artery (in words) [2]: Dilator (Potent)

Compound: CCCCC[C@H](O)/C=C/[C@H]1O[C@H]2C[C@H](O2)[C@@H]1C/C=C\CCCC(=O)O [Thromboxane A2]
effect on blood vessels / arteries (in words) (blood vessels / arteries): powerful constrictor of arteries | effect on blood platelet aggregation (in words) [3]: causes platelet aggregation

Compound: CCCCC[C@H](O)/C=C/[C@@H]1[C@H]2CC(CCCCC(=O)O)O[C@H]2C[C@H]1O (stereo partly shown) [VI, dihydroprostacyclin]
biological activity relative to prostacyclin (in words) [5]: somewhat less, active; also recorded: less biological activity

Compound: CCCCC[C@H](O)/C=C/[C@@H]1[C@H]2CC(/C=C/CCC(=O)O)O[C@H]2C[C@H]1O (stereo partly shown) [VII, (4E)--isoprostacyclin]
biological activity relative to prostacyclin (in words) [5]: somewhat less, active; also recorded: less biological activity

Compound: CCCCC[C@H](O)/C=C/[C@@H]1[C@H]2CCC(CCCC(=O)O)=N[C@H]2C[C@H]1O [V]
effect on blood platelet aggregation (in words) [3]: potency in inhibiting platelet aggregation | stability (in words) [4]: high stability

Stability in aqueous solutions (stable for at least) [6]: at least 30 days | half-life (t1/2 in saline at 25°): > 24 h
Compound: CCCCC[C@H](O)/C=C/[C@@H]1c2cc(CCCCC(=O)O)nnc2C[C@H]1O [XXIV, 6,9-pyridaza prostacyclin, free acid]
Biological Activity: Platelet Aggregation (in words) [1]: Inhibitor (Potent) | Biological Activity: Cat Coronary Artery (in words) [2]: Dilator (Potent)
